Experimental data reported in PubChem BioAssay AID1259411 (Chemical Carcinogenesis Research Information System (CCRIS), 2018).
Activity calls are given as the source filed them. No rule for the calls is given here.

Tested on: rodent carcinogenicity bioassays, tumor incidence
Assay: CCRIS carcinogenicity studies
How it was run: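 Archive of carcinogenicity, mutagenicity, tumor promotion and tumor inhibition results drawn from journals, NCI reports and other sources, expert-reviewed; covers 1985-2011 and is no longer updated.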

For `CN1[C@@H]2CC[C@H]1CC(OC(=O)C(CO)c1ccccc1)C2` (stereo partly drawn), the carcinogen call (Species: RAT, Strain/Sex: SPRAGUE-DAWLEY/FEMALE, Route: INTRAPERITONEAL, Dose: 0, 25 UG/KG BW 2/D FOR 5 D TO VIRGIN FEMALE RATS (STUDY DURATION: 28 MO)) was “inactive; negative”.
`COc1ccc([C@@H]2CC(=O)c3c(O)cc(O[C@@H]4O[C@H](CO[C@@H]5O[C@@H](C)[C@H](O)[C@@H](O)[C@H]5O)[C@@H](O)[C@H](O)[C@H]4O)cc3O2)cc1OC` was tested, and the carcinogen call (Species: MOUSE, Strain/Sex: B6C3F1/FEMALE, Route: ORAL, Dose: 0, 1.25, 5% IN DIET FOR 96 WK FOLLOWED BY BASAL DIET FOR AN ADDITIONAL 8 WK (STUDY DURATION: 104 WK), Dose: 0, 1.25, 5% IN DIET FOR 96 WK FOLLOWED BY BASAL DIET FOR AN ADDITIONAL 8 WK (STUDY DURATION: 104 WK)) was “inactive; negative” and the carcinogen call (Species: MOUSE, Strain/Sex: B6C3F1/MALE, Route: ORAL, Dose: 0, 1.25, 5% IN DIET FOR 96 WK FOLLOWED BY BASAL DIET FOR AN ADDITIONAL 8 WK (STUDY DURATION: 104 WK), Dose: 0, 1.25, 5% IN DIET FOR 96 WK FOLLOWED BY BASAL DIET FOR AN ADDITIONAL 8 WK (STUDY DURATION: 104 WK)) was “inactive; negative”.
In the case of `OC[C@@H](O)[C@@H](O)CO`, the carcinogen call (Species: DOG, Strain/Sex: BEAGLE/FEMALE, Route: ORAL, Dose: 0, 2, 5, 10% IN DIET FOR 53 WK (STUDY DURATION: 53 WK), Dose: 0, 2, 5, 10% IN DIET FOR 53 WK (STUDY DURATION: 53 WK)) is reported as “inactive; negative”, the carcinogen call (Species: DOG, Strain/Sex: BEAGLE/MALE, Route: ORAL, Dose: 0, 2, 5, 10% IN DIET FOR 53 WK (STUDY DURATION: 53 WK), Dose: 0, 2, 5, 10% IN DIET FOR 53 WK (STUDY DURATION: 53 WK)) is reported as “inactive; negative” and the carcinogen call (Species: RAT, Strain/Sex: WISTAR/FEMALE, Route: ORAL, Dose: 0, 2, 5, 10% IN DIET FOR 104 WK (STUDY DURATION: 104 WK), Dose: 0, 2, 5, 10% IN DIET FOR 104 WK (STUDY DURATION: 104 WK)) is reported as “inactive; negative”. The carcinogen call (Species: RAT, Strain/Sex: WISTAR/MALE, Route: ORAL, Dose: 0, 2, 5, 10% IN DIET FOR 104 WK (STUDY DURATION: 104 WK), Dose: 0, 2, 5, 10% IN DIET FOR 104 WK (STUDY DURATION: 104 WK)) was “inactive; negative”.
With `CCCCC1C(=O)N(c2ccccc2)N(c2ccccc2)C1=O` the carcinogen call (Species: MOUSE, Strain/Sex: B6C3F1/FEMALE, Route: GAVAGE, Dose: 0, 150, 300 MG/KG IN CORN OIL 5 D/WK FOR 103 WK (STUDY DURATION: 107 WK), Dose: 0, 150, 300 MG/KG IN CORN OIL 5 D/WK FOR 103 WK (STUDY DURATION: 107 WK)) was “inactive; negative”, the carcinogen call (Species: MOUSE, Strain/Sex: B6C3F1/MALE, Route: GAVAGE, Dose: 0, 150, 300 MG/KG IN CORN OIL 5 D/WK FOR 103 WK (STUDY DURATION: 107 WK), Dose: 0, 150, 300 MG/KG IN CORN OIL 5 D/WK FOR 103 WK (STUDY DURATION: 107 WK), Tumor Site: Type of Lesion: LIVER: HEPATOCELLULAR ADENOMA, HEPATOCELLULAR ADENOMA OR CARCINOMA) was “active; positive” and the carcinogen call (Species: RAT, Strain/Sex: F344/FEMALE, Route: GAVAGE, Dose: 0, 50, 100 MG/KG IN CORN OIL 5 D/WK FOR 103 WK (STUDY DURATION: 103 WK), Dose: 0, 50, 100 MG/KG IN CORN OIL 5 D/WK FOR 103 WK (STUDY DURATION: 103 WK), Tumor Site: Type of Lesion: KIDNEY: TRANSITIONAL EPITHELIAL CARCINOMA, TUBULAR CELL ADENOMA) was “active; positive”. The carcinogen call (Species: RAT, Strain/Sex: F344/MALE, Route: GAVAGE, Dose: 0, 50, 100 MG/KG IN CORN OIL 5 D/WK FOR 103 WK (STUDY DURATION: 103 WK), Dose: 0, 50, 100 MG/KG IN CORN OIL 5 D/WK FOR 103 WK (STUDY DURATION: 103 WK), Tumor Site: Type of Lesion: KIDNEY: TUBULAR CELL ADENOMA, TUBULAR CELL ADENOMA OR CARCINOMA) was “equivocal”.
For `CN(C)CCOC(C)(c1ccccc1)c1ccccn1` (stereo not drawn), the carcinogen call (Species: MOUSE, Strain/Sex: B6C3F1/FEMALE, Route: ORAL, Dose: 0, 190, 375, 750 PPM IN DIET FOR 2 YR (STUDY DURATION: 2 YR), Dose: 0, 190, 375, 750 PPM IN DIET FOR 2 YR (STUDY DURATION: 2 YR), Tumor Site: Type of Lesion: LIVER: HEPATOCELLULAR ADENOMA, THYROID: FOLLICULAR CELL ADENOMA) was “active; positive”, the carcinogen call (Species: MOUSE, Strain/Sex: B6C3F1/MALE, Route: ORAL, Dose: 0, 190, 375, 750 PPM IN DIET FOR 2 YR (STUDY DURATION: 2 YR), Dose: 0, 190, 375, 750 PPM IN DIET FOR 2 YR (STUDY DURATION: 2 YR), Tumor Site: Type of Lesion: LIVER: HEPATOCELLULAR ADENOMA, THYROID: FOLLICULAR CELL ADENOMA) was “active; positive” and the carcinogen call (Species: RAT, Strain/Sex: F344/FEMALE, Route: ORAL, Dose: 0, 500, 1000, 2000 PPM IN DIET FOR 2 YR (STUDY DURATION: 2 YR), Dose: 0, 500, 1000, 2000 PPM IN DIET FOR 2 YR (STUDY DURATION: 2 YR)) was “inactive; negative”.
For `C=CC(OCC)OCC`, the carcinogen call (Species: HAMSTER, Strain/Sex: SYRIAN/MALE, Route: GAVAGE, Dose: 0, 2 MG/WK FOR 54 OR 64 WK (STUDY DURATION: 92 WK)) was “inactive; negative”, the carcinogen call (Species: RAT, Strain/Sex: F344/FEMALE, Route: ORAL, Dose: 0, 470, 1200 MG/L IN DRINKING WATER 5 D/WK FOR 100 WK (STUDY DURATION: 130 WK), Dose: 0, 470, 1200 MG/L IN DRINKING WATER 5 D/WK FOR 100 WK (STUDY DURATION: 130 WK)) was “inactive; negative” and the carcinogen call (Species: RAT, Strain/Sex: F344/MALE, Route: ORAL, Dose: 0, 470, 1200 MG/L IN DRINKING WATER 5 D/WK FOR 100 WK (STUDY DURATION: 130 WK), Dose: 0, 470, 1200 MG/L IN DRINKING WATER 5 D/WK FOR 100 WK (STUDY DURATION: 130 WK)) was “inactive; negative”.
In the case of `CNC(=O)CSP(=S)(OC)OC`, the carcinogen call (Species: MOUSE, Strain/Sex: B6C3F1/FEMALE, Route: ORAL, Dose: 0, 250, 500 PPM IN DIET, Dose: 0, 250, 500 PPM IN DIET) is reported as “inactive; negative”, the carcinogen call (Species: MOUSE, Strain/Sex: B6C3F1/MALE, Route: ORAL, Dose: 0, 250, 500 PPM IN DIET, Dose: 0, 250, 500 PPM IN DIET) is reported as “inactive; negative” and the carcinogen call (Species: RAT, Strain/Sex: OSBORNE-MENDEL/FEMALE, Route: ORAL, Dose: 0, 192, 384 PPM IN DIET, TWA, Dose: 0, 192, 384 PPM IN DIET, TWA) is reported as “inactive; negative”. For the same compound, the carcinogen call (Species: RAT, Strain/Sex: OSBORNE-MENDEL/MALE, Route: ORAL, Dose: 0, 155, 310 PPM IN DIET, TWA) was “inactive; negative”, the carcinogen call (Species: RAT, Strain/Sex: WISTAR/FEMALE, Route: ORAL, Dose: 0, 2, 20, 200 PPM IN DIET FOR 2 YR (STUDY DURATION: 2 YR), Dose: 0, 2, 20, 200 PPM IN DIET FOR 2 YR (STUDY DURATION: 2 YR)) was “inactive; negative” and the carcinogen call (Species: RAT, Strain/Sex: WISTAR/MALE, Route: ORAL, Dose: 0, 2, 20, 200 PPM IN DIET FOR 2 YR (STUDY DURATION 2 YR), Dose: 0, 2, 20, 200 PPM IN DIET FOR 2 YR (STUDY DURATION 2 YR)) was “inactive; negative”.
